This assay concerns the target T1, AP1G1 (Homo sapiens, UniProt O43747).
T1 construct: endogenous full-length AP1G1 in BEAS-2B cells or lysate; untagged
T1 sequence (O43747 1-822): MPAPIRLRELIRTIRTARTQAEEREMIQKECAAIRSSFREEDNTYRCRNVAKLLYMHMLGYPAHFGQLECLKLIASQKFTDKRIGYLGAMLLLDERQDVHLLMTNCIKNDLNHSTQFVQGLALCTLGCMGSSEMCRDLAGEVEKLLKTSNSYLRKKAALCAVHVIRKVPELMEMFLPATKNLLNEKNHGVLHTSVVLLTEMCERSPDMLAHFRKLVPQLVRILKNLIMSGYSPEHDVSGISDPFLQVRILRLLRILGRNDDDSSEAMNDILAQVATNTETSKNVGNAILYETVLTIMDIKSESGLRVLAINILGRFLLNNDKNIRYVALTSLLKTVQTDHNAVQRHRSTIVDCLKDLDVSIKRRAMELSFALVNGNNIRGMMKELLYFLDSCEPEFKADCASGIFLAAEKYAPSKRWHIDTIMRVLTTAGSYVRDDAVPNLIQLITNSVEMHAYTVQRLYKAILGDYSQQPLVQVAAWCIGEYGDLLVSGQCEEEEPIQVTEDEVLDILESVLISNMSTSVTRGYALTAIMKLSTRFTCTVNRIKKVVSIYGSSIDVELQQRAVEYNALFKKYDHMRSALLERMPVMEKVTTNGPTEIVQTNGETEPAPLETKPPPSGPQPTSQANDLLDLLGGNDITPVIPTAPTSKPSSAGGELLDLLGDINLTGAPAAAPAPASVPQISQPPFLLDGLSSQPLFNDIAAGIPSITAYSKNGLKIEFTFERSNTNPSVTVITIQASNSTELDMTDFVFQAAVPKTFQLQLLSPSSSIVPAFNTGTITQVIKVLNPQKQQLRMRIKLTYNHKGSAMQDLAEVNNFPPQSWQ
The experiment in a line: CETSA-Western blot. The assay is classed as cell-based. The following applies: 40-65 ℃; covalent; Cys128; also competes with ITAP in BEAS-2B lysate. (In general: Immunoblotting shows a protein as a band on a membrane.)

Take `C=C(CC(=O)O)C(=O)O` [itaconate]: the CETSA-Western blot result is recorded as “Itaconate treatment significantly altered the thermal stability of AP1G1”.

For the origin of these results see publication PMC12602806, “Itaconate reduces viral endocytosis by targeting Cys128 of the adaptor-related protein complex 1 gamma 1 subunit in the host, providing a novel target for antiviral drug development” (Molecular Biomedicine, 2025).
